# Laboratory results published in the NIST ThermoML archive (doi:10.1016/j.fluid.2016.08.019).
# Numbers after ± are expanded uncertainties.
# What was measured:
# [1] = Crystal; DTA
# [2] = Molar enthalpy of transition or fusion; settings: Crystal; DSC
structure (smiles),measurement,setting,value
CCOc1ccccc1C(N)=O [Ethenzamide],Normal melting temperature,[1],138.33 ± 0.39 °C
same,Molar enthalpy of transition or fusion,[2],4.89 ± 0.222 kcal/mol
